Experiments:
Tetrahymena pyriformis = test: 48 h IGC50 (-log10 mol/L); higher = more toxic
Pimephales promelas = test: 96 h LC50 (-log10 mol/L); higher = more toxic

SMILES	48 h IGC50 (-log10 mol/L) (Tetrahymena pyriformis)	96 h LC50 (-log10 mol/L) (Pimephales promelas)
C=CCC(O)C=C (stereo unspecified)	3.25	3.41
O=Cc1ccc(Cl)cc1Cl	4.04	4.99
CC(=O)c1ccccc1	2.54	2.87
C/C=C/C=O	4.06	4.92
CCOC(=O)CC(=O)OCC	2	4.02
C=CCO	1.08	5.26
N#CC(Br)Br	5.4	5.56
Cc1cccc(Cl)c1C#N	3.46	4
CCNCc1ccccc1	3.22	3.37
c1cc(CCc2ccncc2)ccn1	2.97	3.09
CC(=O)Nc1cccc(O)c1	2.84	2.13
O=C(O)CCCCC(=O)O	2.39	3.18
O=[N+]([O-])c1ccc(F)cc1	3.1	3.7
c1ccc(-c2ccncc2)cc1	3.66	3.98
C=CCC#N	1.52	2.57
c1ccoc1	1.35	3.05
CC(=O)c1cccn1C	2.31	2.9
CCOC(=O)CCCCC(=O)OCC	2.87	4.05
NCCN1CCNCC1	2.21	1.77
O=[N+]([O-])c1cc([N+](=O)[O-])c(Cl)cc1Cl	5.72	6.78
OCC(Cl)(Cl)Cl	2.54	2.82
N#Cc1ccccn1	2.17	2.16

SMILES	48 h IGC50 (-log10 mol/L) (Tetrahymena pyriformis)	96 h LC50 (-log10 mol/L) (Pimephales promelas)
CCCCCOCCCCC	4.09	4.71
COc1cc(OC)c(OC)cc1C=O	2.9	3.6
N#Cc1ccc([N+](=O)[O-])cc1	3.57	3.78
Cc1ccc(C)c(C)c1	3.78	4.19
CCC#N	1.03	1.56
CC(=O)c1ccc(Cl)cc1Cl	3.62	4.21
Clc1cc(Cl)c(Cl)cc1Cl	5	5.83
CCCCOC(=O)CCCCC(=O)OCCCC	3.79	4.85
CCOC(=O)c1ccc(N)cc1	3.7	3.67
O=[N+]([O-])c1ncccc1O	3.87	2.92
Cc1ccc(C)c(O)c1C	3.28	4.22
O=C1CCCCC1	1.77	2.19
C=CC(=O)OCC(C)O (stereo unspecified)	3.65	4.59
Cc1ccc(N)c([N+](=O)[O-])c1	3.37	3.79
Oc1cccnc1Cl	2.99	2.32
C=CC(=O)OCC	3.52	4.6
NC(=O)c1ccc(Cl)cc1Cl	2.64	3.3
Cc1cccc(O)c1[N+](=O)[O-]	3.61	3.52
C=CC(=O)OC1CCCCC1	3.76	5.02
Cc1cccc(O)c1	2.92	3.29
CC(=O)CC(=O)c1ccccc1	3.57	5.17
C=CCc1ccccc1O	3.33	3.98

SMILES	48 h IGC50 (-log10 mol/L) (Tetrahymena pyriformis)	96 h LC50 (-log10 mol/L) (Pimephales promelas)
CCC(C)=NO	1.93	2.01
C=C(C)C(=O)OCc1ccccc1	3.65	4.58
CCCCCCCCO	3.58	3.98
CCC(C)=O	1.25	1.35
O=[N+]([O-])c1cccc(Cl)c1	3.73	3.93
CC(C)c1cccc(C(C)C)c1N	3.76	4.1
CC(O)CCl (stereo unspecified)	1.51	2.59
CCOP(=O)(Cc1ccccc1)OCC	2.57	2.83
CCCCCCCCCCC(C)=O	4.67	5.19
CC(C)COC(=O)c1ccccc1C(=O)OCC(C)C	4.44	5.49
O=[N+]([O-])c1ccc(Oc2ccccc2)cc1	4.58	4.91
CC1(C)OCC(CO)O1 (stereo unspecified)	1.21	0.898
CCCCOC(=O)CCC(=O)OCCCC	3.51	4.71
Oc1ccccc1O	3.75	4.29
O=Cc1cc(Cl)ccc1O	4.01	5.31
CCOC(=O)c1ccccc1	2.99	4.25
C=CCc1ccc(O)c(OC)c1	3.42	3.83
Oc1c(I)cc(I)cc1I	5.67	5.59
CO	0.334	0.056
CCOC(=O)CCCCCCCCC(=O)OCC	4.35	4.98
CC(O)CO (stereo unspecified)	0.49	0.349
O=Cc1cccnc1	2.87	3.81

SMILES	48 h IGC50 (-log10 mol/L) (Tetrahymena pyriformis)	96 h LC50 (-log10 mol/L) (Pimephales promelas)
CCCCC=O	2.98	3.83
Nc1ccc(Br)cc1	4.01	3.56
c1ccccc1	2.88	3.44
CCCCCO	1.97	2.22
CCCCCCCCN	3.35	4.4
Cc1cc(C)c(C#N)c(=O)[nH]1	2.3	2.98
Cc1cccc(Cl)n1	2.52	2.74
N#CCCl	3.85	4.75
CN(C)c1ccccn1	2.45	2.98
O=Cc1ccc(O)cc1O	3.52	4.02
Cc1cc([N+](=O)[O-])ccc1N	3.49	3.24
O=Cc1cccc([N+](=O)[O-])c1	3.11	4.42
Nc1ccc(F)cc1	3.59	3.82
O=Cc1ccccc1[N+](=O)[O-]	3.17	4.02
CCCCOC(=O)/C=C/C(=O)OCCCC	4.49	5.52
O=[N+]([O-])c1c(Cl)cc(Cl)c([N+](=O)[O-])c1Cl	5.19	6.09
c1ccc2occc2c1	2.89	3.93
COC(C)=O	1.41	2.27
C=CC(N)=O	2.19	2.79
Nc1cc([N+](=O)[O-])cc([N+](=O)[O-])c1	3.94	3.93
O=C(c1ccc(Br)cc1)c1cccnc1	3.82	4.11
CC(=O)c1ccc(Cl)c(Cl)c1Cl	4.34	5.05

SMILES	48 h IGC50 (-log10 mol/L) (Tetrahymena pyriformis)	96 h LC50 (-log10 mol/L) (Pimephales promelas)
CCCCCCCCBr	4.87	5.36
Cc1c[nH]c2ccccc12	3.37	4.17
COC(=O)c1ccc(Cl)cc1	3.42	4.16
CC(C)O	1.12	0.778
Cc1ccc(N)cc1N	2.34	1.94
CC(=O)OC(C)(C)C	1.51	2.55
CCCCCCCBr	4.49	5.09
CC(C)(CC(=O)O)CC(=O)O	2.34	1.05
CCCCC(C)=O	1.66	2.37
Oc1c(Br)cc(Br)cc1Br	4.91	4.71
OCCCc1cccnc1	2.16	2.96
O=Cc1ccc([N+](=O)[O-])cc1	3.2	4.17
COCCN	1.21	2.16
CCC(C)(C)c1ccc(O)cc1	4.23	4.8
CCCC(C)=O	1.78	1.84
O=Cc1cc(Br)cc(Br)c1O	4.65	5.52
CCOc1ccc(N)c([N+](=O)[O-])c1	3.76	3.85
Cc1cc(Cl)nc(N)n1	2.53	3.01
COC(=O)c1ccc([N+](=O)[O-])cc1	3.39	3.88
CCN(CC)c1ccccc1	3.66	3.96
